Measurements taken from ChEMBL document CHEMBL4052783, “Effects of novel triple-stage antimalarial ionic liquids on lipid membrane models” (Bioorg Med Chem Lett, 2017).

Experiments:
[1] = system: Lipid bilayer; assay: Binding affinity to DPPC membrane assessed as change in enthalpy for main transition temperature at 1:10 compound/DPPC molar ratio by differential scanning calorimetric method (reference value: 7.22 kJ/mol)
[2] = system: Lipid bilayer; assay: Binding affinity to DPPC membrane assessed as main transition temperature at 1:10 compound/DPPC molar ratio by differential scanning calorimetric method (reference value: 41.5 degreeC)
[3] = system: Lipid bilayer; assay: Binding affinity to DPPG membrane assessed as main transition temperature at 1:10 compound/DPPG molar ratio by differential scanning calorimetric method (reference value: 40.3 degreeC)
[4] = system: Lipid bilayer; assay: Binding affinity to DPPG membrane assessed as change in enthalpy for main transition temperature at 1:10 compound/DPPG molar ratio by differential scanning calorimetric method (reference value: 8.7 KJ/mol)
[5] = system: Lipid bilayer; assay: Binding affinity to DPPG membrane assessed as change in enthalpy for pre-transition temperature at 1:10 compound/DPPG molar ratio by differential scanning calorimetric method (reference value: 0.74 KJ/mol)
[6] = system: Lipid bilayer; assay: Binding affinity to DPPG membrane assessed as pre-transition temperature at 1:10 compound/DPPG molar ratio by differential scanning calorimetric method (reference value: 34.5 degreeC)

deltaH [1] [kcal/mol]	Tm [2] [°C]	Tm [3] [°C]	deltaH [4] [kcal/mol]	deltaH [5] [kcal/mol]	Tm [6] [°C]	Compound
2.29	40.7	38.1	2.23			COc1cc(NC(C)CCCN)c2ncccc2c1.O=C(O)/C=C/c1ccc(Cl)cc1 (stereo not given)
1.89	40.1	39	2.22	0.103	32.4	COc1cc(NC(C)CCCNC(=O)/C=C/c2ccc(C(C)C)cc2)c2ncccc2c1 (stereo not given)
2.22	40.2	38.3	2.35			CC(C)c1ccc(/C=C/C(=O)O)cc1.COc1cc(NC(C)CCCN)c2ncccc2c1 (stereo not given)
2.05	40.1	39	2.46	0.143	32.7	COc1cc(NC(C)CCCNC(=O)/C=C/c2ccc(Cl)cc2)c2ncccc2c1 (stereo not given)
